The source of these data is patent US20130253048A1, “Pharmaceutical Composition for Promoting Osteogenesis Containing Axial-equatorial Aryl-oriented Furofuran-type Lignan, and Pharmaceutical Preparation, Functional Food Product, and Health Food Product Comprising Composition” (ERINA CO., INC., priority 2010, published 2013).

Where two headings read alike, the source gives them in different places.

For one assay, the system named is MC3T3-E1 cells. Put plainly: Calcification of the osteoblast (ALP activity, alizarin red) in MC3T3-E1. It counts as cell-based, mouse. The method, then: MC3T3-E1 cells as the same as those used in Example 4 were used. In addition, 50 μg/ml of L-ascorbic acid and 10 mM β-Glycerophosphate (both from Sigma-Aldrich Japan Co. LLC.) were added to the basal medium employed in the Example 3 was used. Fargesin prepared in the Example 1 was added to the medium the concentration at 2 to 80 μM.
MC3T3-E1 was inoculated in each well of the 96 well plates at 4,000 cells/well, and then the plate was pre-cultured by using only basal mediums under the condition of 5% CO2 and 37 degree centigrade for 2 days. After that, the medium was exchanged to the medium containing 50 μg/ml of L-ascorbic acid, 10 mM β-Glycerophosphate, and fargesin, and it was incubated under the condition of 5% CO2 and 37 degree centigrade for 5 days. After the termination of the incubation, the measurement of ALP activity and the differentiated cells were observed as the same as those in Example 3.
Mineral deposition was stained by using 1% alizarin red observed as the bone calcification (Wako Pure Chemical Industries, Ltd.) according to the conventional method, and then it was observed as the bone calcification.

The subject of assay [1] is BMCs and UAMS-32 cells co-culture. In words: Differentiation of osteoblast and osteoclast in co-culture (ALP and TRAP activity). The format is cell-based, mouse. The settings on record: for activity at 2 µM / activity at 6 µM / activity at 20 µM / activity at 60 µM / activity at 80 µM: Mus musculus, 120 h, 5 days co-culture, negative control = 100%. The method, then:
Four-week-old ddY male mice (Japan SLC, Inc.) were killed by the cervical dislocation, and then, the long bones of left and right lower extremities were excised with muscles. All of the muscles were removed from the bones, and the femurs and shinbones were obtained. The both ends of the obtained femurs and shinbones were scraped a little by a little. The cells in the bone morrow were pushed out into the following medium by using a 2.5 ml of syringe with a needle (22G×1¼; Thermo corporation). After that, contaminants were eliminated through a filter ([…] Nylon Cell Strainer; Japan Becton, Dickinson and Company) to obtain more than 2×10^8 cells of BMCs.
Osteoblast-like cells, UAMS-32 cells, were purchased from the Institution of Physical and Chemical Research (Japan).
In order to prepare the basic medium, 10.2 g of α-MEM (powder, Life Technologies Japan Corporation (GIBCO)) was dissolved in 1 L of purified water and 2.2 g/l (w/v) of sodium bicarbonate was added. Then, it was filtered through a sterilized filter of which pore diameter was 0.22 μm (Nihon Millipore K. K). Further, the basic mediums were supplemented with 10% (v/v) fetal bovine serum (FBS) (Sigma, heat-inactivated for 30 minutes at 56° C.).
In this example, 1 μM of PGE2 and 10 nM of Vitamin D3 (both from Wako Pure Chemical Industries, Ltd.) were added to the medium to prepare a co-culture medium. By using the co-culture medium, cell suspensions of BMCs and UAMS-32 obtained as mentioned above were prepared. For the test group, 2 to 80 μM of fargesin was added, and for the negative control group, DMSO was added so as to be 0.3% of the final concentration.
BMCs were plated at the concentration of 2×10^6 cells/well, and UAMS-32 cells were plated at the concentration of 1×10^5 cells/well in each well of the 96 well plates, respectively. Then, the cells were co-cultured in the co-culture medium under the conditions of 5% CO2 and 37 degree centigrade for 5 days. The medium were changed on the 3rd days from the culture start. After cells were fixed as described in below, alkaline phosphatase (ALP) activity was measured as the index of osteoblast differentiation; tartrate-resistant acid phosphatase activity was measured as the index of osteoclast differentiation.
The cells were cultured under the above-mentioned conditions, 10% formalin aqueous solution was added into each well still standing for 10 minutes, and then ethanol was added still standing for further 1 minute to fix the cells. In order to measure TRAP activity, 10 mM sodium tartrate/50 mM citric acid buffer solution containing 1.36 mg of p-nitrophenyl sodium phosphate (Sigma-Aldrich Co. LLC.) (pH 4.6) was prepared as a substrate solution for TRAP. The substrate solution for TRAP was added to the well at the volume of 100 μl/well, and reacted for 15 to 20 minutes at a room temperature. The reaction solution was transferred into another 96 well plate, to which 100 μl/well of 0.1N NaOH was previously added to stop the reaction, and they were measured at absorbance of 405 nm.
50 mM sodium tartrate/0.1 M of sodium acetate buffer (pH 5.0) including 0.1 mg/ml naphthol AS-MX phosphate (sigma N-4875) and 0.6 mg/ml Fast red violet LB salt (both from Sigma-Aldrich Japan Co. LLC.) was prepared as TRAP staining solution. The TRAP staining solution was added to the wells to stain the cells in negative control group till they took on red color under room temperature. After that, the cells were washed with distilled water. The cells stained red and having not less than two nuclei was decided as multinuclear osteoclast, of which number was counted by using the microscope.
After the cells were cultured under the conditions, 100 μl/well of methanol cooled to −20 degree centigrade was added into the cells and stood for further 1 minute to fix the cells. […]

The subject of another assay is TRACP5b. In words: Serum TRACP5b of OVX mice (bone metabolism marker). It counts as in vivo, mouse. The method, then: All obtained blood from the heart under diethyl ether anesthesia at dissection was stored at 4 degree centigrade for 24 hours. Then, the blood was centrifuged at 3,000 rpm (4,000×g) for 15 minutes to separate the sera.
According to the protocol of Mouse TRAP™ Assay (Immuno-diagnostic Systems Ltd, the United of Kingdom), TRACP5b in the obtained sera was determined.

With `COc1ccc([C@@H]2OC[C@H]3[C@@H]2CO[C@@H]3c2ccc3c(c2)OCO3)cc1OC` [fargesin, Fargesin], the “Mineral deposition (calcification), alizarin red staining” value in the assay with MC3T3-E1 cells (60 to 80 μM, MC3T3-E1) was “increased mineral deposition side”. In addition, the activity at 2 µM with MC3T3-E1 cells (Mus musculus, 120 h, 2 μM, MC3T3-E1 with L-ascorbic acid and β-Glycerophosphate, 5 days, negative control = 100) was found to be 93.3 ± 2.6%; in assay [1] (read-out: ALP activity (%)), 113 ± 15.7%; in assay [1] (read-out: TRAP activity (%)), 89.5 ± 5.4%. Also, the activity at 6 µM in the assay with MC3T3-E1 cells (Mus musculus, 120 h, 6 μM, MC3T3-E1 with L-ascorbic acid and β-Glycerophosphate, 5 days, negative control = 100) is 92.8 ± 1.6%; in assay [1] (read-out: ALP activity (%)) it was 120 ± 10.1%; in assay [1] (read-out: TRAP activity (%)), 88.7 ± 7.2%. Also, the activity at 20 µM with MC3T3-E1 cells (Mus musculus, 120 h, 20 μM, MC3T3-E1 with L-ascorbic acid and β-Glycerophosphate, 5 days, negative control = 100) was found to be 107 ± 3.8%; in assay [1] (read-out: ALP activity (%)), 146 ± 14.4%; in assay [1] (read-out: TRAP activity (%)), 74.4 ± 8.5%. The activity at 60 µM is 173 ± 13.7% with MC3T3-E1 cells (Mus musculus, 120 h, 60 μM, MC3T3-E1 with L-ascorbic acid and β-Glycerophosphate, 5 days, negative control = 100); 164 ± 14% in assay [1] (read-out: ALP activity (%)); 42.4 ± 7.1% in assay [1] (read-out: TRAP activity (%)). For the same compound, the activity at 80 µM in the assay on MC3T3-E1 cells (Mus musculus, 120 h, 80 μM, MC3T3-E1 with L-ascorbic acid and β-Glycerophosphate, 5 days, negative control = 100) is 172 ± 12.2%; in assay [1] (read-out: ALP activity (%)), 199 ± 14.6%; in assay [1] (read-out: TRAP activity (%)), 35.7 ± 5.6%. Also, the “cells differentiated to the osteoclast, ALP and TRAP double staining” value in assay [1] (60 to 80 μM, co-culture) was “rarely observed”. In addition, the “level of TRACP5b in the sera” value in the assay with TRACP5b (40 mg administration group p.o.) was “significantly decreased”; in the assay on TRACP5b (2, 20, 40 mg/kg/day p.o.), “dose-dependently decreased”.
